T1: BxlE (Streptomyces thermoviolaceus, UniProt Q76BU9)
T1 construct: gene bxlD
T1 sequence (Q76BU9 1-436): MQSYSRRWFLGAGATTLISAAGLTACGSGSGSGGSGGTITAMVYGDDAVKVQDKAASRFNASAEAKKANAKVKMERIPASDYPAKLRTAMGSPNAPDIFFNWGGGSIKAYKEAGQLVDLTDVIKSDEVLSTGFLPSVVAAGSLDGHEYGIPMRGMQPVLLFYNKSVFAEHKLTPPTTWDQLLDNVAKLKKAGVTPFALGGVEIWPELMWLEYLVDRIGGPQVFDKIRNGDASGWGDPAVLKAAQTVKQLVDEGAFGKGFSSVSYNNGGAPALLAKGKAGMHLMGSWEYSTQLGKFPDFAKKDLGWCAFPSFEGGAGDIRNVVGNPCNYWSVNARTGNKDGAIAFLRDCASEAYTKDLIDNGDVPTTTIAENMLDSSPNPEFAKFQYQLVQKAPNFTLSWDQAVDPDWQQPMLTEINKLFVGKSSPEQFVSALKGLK


What was measured:
XylRA [1] = assay: isothermal titration calorimetry; settings: 10 mM Tris-HCl pH 8.0, 100 mM NaCl, 25°C; effector
XylC = biological target: T2, XylC; assay: isothermal titration calorimetry; type: binding, Vibrio sp. EA2; settings: 10 mM Tris-HCl pH 8.0, 100 mM NaCl, 25°C
T2 construct: construct borders only in supplement

BxlE = biological target: T1, BxlE; assay: biochemical; set-up: isothermal titration calorimetry binding of xylooligosaccharides to recombinant substrate-binding proteins
XylRA [2] = biological target: XylRA (Vibrio sp. EA2, UniProt A0A090T8X9 1-401); assay: EMSA; xylose; EMSA: 25 ng biotin-labelled probe, 0.1-0.5 nmol XylRA in 20 uL EMSA/Gel-shift binding buffer (Beyotime), xylose present, room temperature; salt and pH not stated; settings: protein: recombinant; tags: C-terminal His (pET-22b); chain copies: 2; label: 5'-biotin on strand 1; blunt

| Kd (BxlE) | Molecule | binding result (XylRA [2]) | further results |
| --- | --- | --- | --- |
| 15.1 ± 4.04 nM | OC1OC[C@@H](O[C@@H]2OC[C@@H](O)[C@H](O)[C@H]2O)[C@H](O)[C@H]1O (stereo partly drawn) [β-1,4X2] | – | – |
| 6.28 ± 1.93 nM | OC1OC[C@@H](O[C@@H]2OC[C@@H](O[C@@H]3OC[C@@H](O)[C@H](O)[C@H]3O)[C@H](O)[C@H]2O)[C@H](O)[C@H]1O (stereo partly drawn) [β-1,4X3] | – | – |
| 13.2 ± 1.93 nM | OC1OC[C@@H](O[C@@H]2OC[C@@H](O[C@@H]3OC[C@@H](O[C@@H]4OC[C@@H](O)[C@H](O)[C@H]4O)[C@H](O)[C@H]3O)[C@H](O)[C@H]2O)[C@H](O)[C@H]1O (stereo partly drawn) [β-1,4X4] | – | – |

Further lines, the molecule ahead of its results:

| Molecule | Kd (BxlE) | binding result (XylRA [2]) | further results |
| --- | --- | --- | --- |
| OC1OC[C@@H](O)[C@H](O)[C@H]1O (stereo partly shown) [X, xylose] | – | – | Kd (XylRA [1]): 5100 nM |
| OC1OC[C@@H](O)[C@H](O[C@@H]2OC[C@@H](O)[C@H](O[C@@H]3OC[C@@H](O)[C@H](O[C@@H]4OC[C@@H](O)[C@H](O)[C@H]4O)[C@H]3O)[C@H]2O)[C@H]1O (stereo partly drawn) [β-1,3X4, β-1,3-xylotetraose] | – | – | Kd (XylC): 1000 nM |
| PxylC (dsDNA) DNA 1: GGAAATAAATAGAATAAATGTGGTGAGAGATATAATAATACTTGCCATAG DNA 2: CTATGGCAAGTATTATTATATCTCTCACCACATTTATTCTATTTATTTCC | – | binds | – |
| PxylT (dsDNA) DNA 1: ACATTTAGCAAATAGGTGAAATTTGGTATCAAAAATCATAATTGATGGCG DNA 2: CGCCATCAATTATGATTTTTGATACCAAATTTCACCTATTTGCTAAATGT | – | binds | – |
| PxylT-m2 (dsDNA) DNA 1: ACATTTAGCGCATAGGTGAAATTTGGTATCGCAAATCATAATTGATGGCG DNA 2: CGCCATCAATTATGATTTGCGATACCAAATTTCACCTATGCGCTAAATGT | – | no binding | – |
| Pxyn26B (dsDNA) DNA 1: ACACAAAAAAAATATAAAAATATAATCAGAAAAAATCATAATTGATATTG DNA 2: CAATATCAATTATGATTTTTTCTGATTATATTTTTATATTTTTTTTGTGT | – | binds | – |
| PxylB (dsDNA) DNA 1: CAATTATGTTTTTTTACAGGTGAATTCACGGATTTCACGAGTGAGTCTGA DNA 2: TCAGACTCACTCGTGAAATCCGTGAATTCACCTGTAAAAAAACATAATTG | – | binds | – |

— PMC12125979, “Complete xylan utilization pathway and regulation mechanisms involved in marine algae degradation by cosmopolitan marine and human gut microbiota” (The ISME Journal, 2025)
